IC50 and Bcl-xL expression data for one molecule are collected here from PMC7504466, “In-Vitro and In-Silico Evaluations of Heterocyclic-Containing Diarylpentanoids as Bcl-2 Inhibitors Against LoVo Colorectal Cancer Cells” (Molecules, 2020).

For assay [1], the system named is SW620 cells. Briefly: MTT cytotoxicity assay, SW620 cells. The class given is cell-based. The settings on record: Homo sapiens, SW-620, 72 h post-treatment, read-out: IC50 (µM) KRAS SW620. On the procedure: (§1) The in-vitro cytotoxic activity of the synthesized compounds on seven human CRC cell lines including KRAS (T84, SW620, LoVo) and BRAF (HT29, NCI-H508, RKO and LS411N) mutated cells were determined by MTT assay as previously described. The IC50 values obtained are summarized in Table 2 in which 5-FU and normal human dermal fibroblasts (NHDF) were used as controls. Meanwhile, a heatmap (Figure 3) was also generated using GraphPad Prism v7.0 (GraphPad Software, La Jolla, CA, USA) to visualize the cytotoxic trends of synthesized compounds graphically.
(§2) A panel of KRAS (T84, SW620 and LoVo) and BRAF (HT29, NCI-H508, RKO and LS411N) mutated human CRC cell lines were grown in Dulbecco’s modified Eagle’s medium (DMEM) containing 10% fetal bovine serum (FBS) and 1% penicillin/streptomycin at 37 °C under 5% CO2 while NHDF cells were cultured in DMEM with 5% FBS under the same condition. The culture medium was replenished every two days until the cells reached 80–90% confluency for further usage. All cell lines (T84, ATCC®CCL-248™; SW620, ATCC®CCL-227™; LoVo, ATCC®CCL-229™; HT-29, ATCC®HTB-38; NCI-H508, ATCC®CCL-253™; RKO, ATCC®CRL-2577; LS411N, ATCC®CRL-2159; NHDF, ATCC® PCS-201-010™) were purchased from American Type culture Collections (ATCC, Manassas, VA, USA).
(§3) LoVo cells (1.5–5 × 10^3 cells/well) were seeded into a 96 well plate and incubated at 37 °C and 5% CO2 atmosphere for 24 h. On the following day, the cell media were replaced with 100 µL of test compounds at various concentration. The final concentration of DMSO in the well is 0.1%. After 72 h of incubation, culture medium was removed and 100 µL of MTT (thiazoyl blue tertrazolium bromide) solution (0.5 mg/mL in culture media) was added. The resultant plates were then further incubated at 37 °C for 4 h. Upon completion, the MTT solution was removed and the formazan salts formed were dissolved in 100 µL of DMSO. The absorbance was recorded with a microplate reader at 570 nm. The IC50 values of tested compounds were calculated from three independent experiments.
(Formazan colour is commonly taken as a measure of viable cells.)

The subject of assay [2] is Bcl-xL. The assay can be described thus: Western blot, Bcl-xL. The class given is cell-based, human. The settings on record: 5 µM, LoVo cells, up to 72 h. As to the method:
Lovo cells (1.5 × 10^4 cells/cm^2) were seeded in a T75 flask and incubated at 37 °C and 5% CO2 atmosphere overnight. The seeded cells were then treated with selected compounds at 5 µM of 2e for 24 h, 48 h, and 72 h. After treatment, the cells were harvested and lysed with phenylmethanesulfonyl fluoride (PMSF)-containing cell lysis buffer. The lysates were then centrifuged at 13,300× g for 15 min and the supernatant was collected. Protein concentrations of all samples were determined using a BCA assay kit (Thermo Scientific Inc., Waltham, MA, USA). Equal amounts of protein were electrophoresed in 12% and 20% SDS-polyacrylamide gel (SDS-PAGE), and electro-transferred onto a 0.22-μm polyvinyldene difluoride membrane. Each membrane was blocked with 5% (w/v) skim milk at room temperature for 1 h followed by overnight incubation with specific primary antibodies (1:1000) at 4 °C. Subsequently, the respective membrane was washed thrice with TBST (0.05% (v/v) of tween-20) followed by 1 h incubation with secondary antibody (1:10,000). Upon completion, the membrane was washed thrice with 1X Tris-Buffered Saline, 0.1% Tween® 20 Detergent (TBST) and the immune reactive bands were developed using SuperSignal West Dura Extended Duration Substrate (Thermo Scientific Inc., Waltham, MA, USA). […]
Background: Immunoblotting shows a protein as a band on a membrane.

The test system of assay [3] is NCI-H508 cells. Briefly: MTT cytotoxicity assay, NCI-H508 cells. The class given is cell-based. The settings on record: Homo sapiens, 72 h post-treatment, read-out: IC50 (µM) BRAF NCI-H508. As to the method: as §1, §2, §3

`O=C1C(=Cc2ccccc2Br)CSCC1=Cc1ccccc1Br` [Compound 2e, 3,5-Bis(2-bromobenzylidene)tetrahydro-4H-thiopyran-4-one]: the IC50 (commonly the concentration that inhibits the measured activity by half) in assay [1] was 1.4 µM; in assay [3] it was 1.1 µM. For the same molecule, in assay [2], the Bcl-xL expression entry is recorded as “remained unaffected”.
